Here are results for one compound from US11958812B2, “3, 5-disubstituted pyridine and 3, 5-disubstituted pyridazine derivatives and pharmaceutical use of same” (MITSUBISHI TANABE PHARMA CORPORATION, priority 2018, dated 2024).

The structures appear in SMILES notation.

The target in the assay is human recombinant ATX (Homo sapiens, UniProt Q13822). As to the kind of experiment: Enzyme inhibition test (choline release from LPC, Amplex UltraRed fluorescence). The format is biochemical. The note with it: 200 μM LPC substrate, 1 hr at room temperature, read-out: Experimental Example 1 human ATX IC50. The method, boiled down: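 Recombinant human ATX (enzyme solution 0.4 ng/µL) acted on a mix of 200 µM LPC, Amplex UltraRed, peroxidase and choline oxidase in Tris pH 8.0 buffer with BSA and 0.0025% Triton X-100, 1 h at room temperature. Choline was read by fluorescence (Ex 525/Em 598 nm) against a choline chloride standard. IC50 came from % inhibition relative to enzyme-free and inhibitor-free controls.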

Broadly, the IC50 is the concentration at which inhibition is half-maximal. As for `COc1ccc(-c2cnnc(OC[C@H]3CC[C@H](C(F)(F)F)CC3)c2)nc1[C@H]1C[C@@H]1C(=O)O` [Example 5, (1S,2S)-2-[3-methoxy-6-(6-{[trans-4-(trifluoromethyl)cyclohexyl]methoxy}pyridazin-4-yl)pyridin-2-yl]cyclopropanecarboxylic Acid], the IC50 worked out at 1 nM.
